These are literature values, as cited in article PMC9516332 (Frontiers in Oncology, 2022).

SMILES strings stand for the structures. Like-named read-outs stand apart in the source and are kept apart here.

What all share (settings): cited from earlier work
Series [1] deals with T1, panel of 255 wild-type kinases (Homo sapiens, UniProt O94806).
T1 sequence (O94806 1-890): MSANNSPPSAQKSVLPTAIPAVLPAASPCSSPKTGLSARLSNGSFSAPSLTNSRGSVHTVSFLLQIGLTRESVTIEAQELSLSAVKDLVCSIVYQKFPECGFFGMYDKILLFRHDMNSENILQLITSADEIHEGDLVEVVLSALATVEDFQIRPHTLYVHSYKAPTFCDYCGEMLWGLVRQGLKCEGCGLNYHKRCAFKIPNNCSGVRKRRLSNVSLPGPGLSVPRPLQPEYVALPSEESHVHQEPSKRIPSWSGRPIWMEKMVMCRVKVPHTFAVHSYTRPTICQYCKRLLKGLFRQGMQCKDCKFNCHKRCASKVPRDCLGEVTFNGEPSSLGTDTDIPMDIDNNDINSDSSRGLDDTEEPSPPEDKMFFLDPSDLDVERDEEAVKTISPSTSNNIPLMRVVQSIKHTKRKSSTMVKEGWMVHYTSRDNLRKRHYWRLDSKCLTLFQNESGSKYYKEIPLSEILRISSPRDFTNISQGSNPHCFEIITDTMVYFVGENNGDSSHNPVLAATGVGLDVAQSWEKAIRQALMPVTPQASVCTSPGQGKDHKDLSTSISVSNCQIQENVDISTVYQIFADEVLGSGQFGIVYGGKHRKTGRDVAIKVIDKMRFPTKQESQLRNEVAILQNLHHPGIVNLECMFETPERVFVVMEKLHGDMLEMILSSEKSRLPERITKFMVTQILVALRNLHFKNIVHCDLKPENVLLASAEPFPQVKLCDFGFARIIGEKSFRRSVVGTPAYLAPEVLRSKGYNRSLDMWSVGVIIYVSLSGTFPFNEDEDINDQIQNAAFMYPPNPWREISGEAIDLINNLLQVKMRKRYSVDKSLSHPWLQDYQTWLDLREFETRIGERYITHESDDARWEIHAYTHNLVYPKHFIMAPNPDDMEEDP

Series [2] addresses panel of 255 wild-type kinases (Homo sapiens, UniProt Q9Y6M4).
Series [3] addresses T2, panel of 255 wild-type kinases (Homo sapiens, UniProt Q9BZL6).
T2 sequence (Q9BZL6 1-878): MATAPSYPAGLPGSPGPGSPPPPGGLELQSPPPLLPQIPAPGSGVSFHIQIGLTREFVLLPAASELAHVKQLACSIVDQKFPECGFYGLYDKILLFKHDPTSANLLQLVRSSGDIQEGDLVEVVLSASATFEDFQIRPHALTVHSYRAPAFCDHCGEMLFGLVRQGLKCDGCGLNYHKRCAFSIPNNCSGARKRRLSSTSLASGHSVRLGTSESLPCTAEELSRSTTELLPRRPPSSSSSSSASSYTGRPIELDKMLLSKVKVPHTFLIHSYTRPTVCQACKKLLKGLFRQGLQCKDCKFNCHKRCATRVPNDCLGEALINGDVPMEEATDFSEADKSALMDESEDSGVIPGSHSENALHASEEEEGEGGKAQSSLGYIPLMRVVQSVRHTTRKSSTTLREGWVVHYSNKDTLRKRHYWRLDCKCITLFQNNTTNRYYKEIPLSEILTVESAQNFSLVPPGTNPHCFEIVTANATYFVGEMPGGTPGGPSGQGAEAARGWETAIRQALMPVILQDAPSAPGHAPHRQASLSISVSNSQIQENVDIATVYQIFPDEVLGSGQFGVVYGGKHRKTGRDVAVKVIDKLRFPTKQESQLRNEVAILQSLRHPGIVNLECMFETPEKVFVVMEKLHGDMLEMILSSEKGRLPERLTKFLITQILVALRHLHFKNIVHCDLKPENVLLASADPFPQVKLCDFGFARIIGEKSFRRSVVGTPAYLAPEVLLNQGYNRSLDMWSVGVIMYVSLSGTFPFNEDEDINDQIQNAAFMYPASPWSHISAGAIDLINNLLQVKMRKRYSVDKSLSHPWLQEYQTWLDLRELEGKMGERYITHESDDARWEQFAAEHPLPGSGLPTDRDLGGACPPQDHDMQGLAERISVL

The target in series [4] is panel of 255 wild-type kinases (Homo sapiens, UniProt Q13464).
Series [5] concerns the target T3, panel of 255 wild-type kinases (Homo sapiens, UniProt Q12851).
T3 sequence (Q12851 1-820): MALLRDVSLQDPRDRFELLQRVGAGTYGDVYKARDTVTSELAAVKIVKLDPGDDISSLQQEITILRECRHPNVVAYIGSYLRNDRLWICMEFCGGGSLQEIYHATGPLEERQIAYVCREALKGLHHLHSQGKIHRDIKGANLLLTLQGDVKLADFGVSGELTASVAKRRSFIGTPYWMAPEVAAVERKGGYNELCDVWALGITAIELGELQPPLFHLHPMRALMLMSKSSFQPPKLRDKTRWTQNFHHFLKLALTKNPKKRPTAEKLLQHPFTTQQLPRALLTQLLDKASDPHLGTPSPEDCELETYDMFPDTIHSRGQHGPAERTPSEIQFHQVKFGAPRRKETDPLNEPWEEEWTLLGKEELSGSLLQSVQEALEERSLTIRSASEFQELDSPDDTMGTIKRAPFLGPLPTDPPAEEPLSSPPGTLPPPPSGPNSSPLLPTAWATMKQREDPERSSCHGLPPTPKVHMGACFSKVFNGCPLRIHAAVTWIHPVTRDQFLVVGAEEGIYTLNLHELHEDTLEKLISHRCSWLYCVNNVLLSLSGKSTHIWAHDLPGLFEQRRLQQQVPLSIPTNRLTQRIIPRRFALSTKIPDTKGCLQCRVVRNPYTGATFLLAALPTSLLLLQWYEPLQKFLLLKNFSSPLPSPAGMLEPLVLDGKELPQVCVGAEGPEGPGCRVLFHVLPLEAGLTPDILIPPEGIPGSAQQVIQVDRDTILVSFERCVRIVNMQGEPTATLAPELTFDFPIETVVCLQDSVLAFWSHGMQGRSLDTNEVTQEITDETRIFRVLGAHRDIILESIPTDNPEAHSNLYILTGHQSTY

[6] abbreviates: kinase PKD3, 1 µmol/L single concentration, ref DOI: 10.1158/1535-7163.MCT-18-0877.
The mark [7] stands for this setting: kinase CK1γ3, 1 µmol/L single concentration, ref DOI: 10.1158/1535-7163.MCT-18-0877.
Where [8] appears, read: kinase PKD2, 1 µmol/L single concentration, ref DOI: 10.1158/1535-7163.MCT-18-0877.
The mark [9] stands for this setting: kinase ROCK1, 1 µmol/L single concentration, ref DOI: 10.1158/1535-7163.MCT-18-0877.
Where [10] appears, read: kinase MAP4K2, 1 µmol/L single concentration, ref DOI: 10.1158/1535-7163.MCT-18-0877.
Where [11] appears, read: kinase PKD3, 1 µmol/L single concentration, ref DOI: 10.1371/journal.pone.0092146.
Setting [12] is: kinase PKD2, 1 µmol/L single concentration, ref DOI: 10.1371/journal.pone.0092146.
Setting [13] is: kinase ROCK1, 1 µmol/L single concentration, ref DOI: 10.1371/journal.pone.0092146.
Setting [14] is: kinase MAP4K2, 1 µmol/L single concentration, ref DOI: 10.1371/journal.pone.0092146.
Setting [15] is: kinase CK1γ3, 1 µmol/L single concentration, ref DOI: 10.1371/journal.pone.0092146.

Consider `C=CC(=O)N1CCC[C@@H](n2nc(-c3ccc(Oc4ccccc4)cc3)c3c(N)ncnc32)C1` [ibrutinib], for which the “%-inhibition at 1 µmol/L, PKD3” value in series [1] (setting [6]) is reported as 5.48%. The “%-inhibition at 1 µmol/L, CK1γ3” value in series [2] (setting [7]) is on record as 4%. Moreover, the “%-inhibition at 1 µmol/L, PKD2” value in series [3] (setting [8]) was -3.2%. The “%-inhibition at 1 µmol/L, ROCK1” value in series [4] (setting [9]) is listed as -5.42%. Besides, the “%-inhibition at 1 µmol/L, MAP4K2” value in series [5] (setting [10]) is given as -4.43%.
For `CC(=O)Nc1cccc(-n2c(=O)n(C3CC3)c(=O)c3c(Nc4ccc(I)cc4F)n(C)c(=O)c(C)c32)c1` [trametinib], the “%-inhibition at 1 µmol/L, PKD3” value in series [1] (setting [11]) is recorded as 2.48%. Also, the “%-inhibition at 1 µmol/L, PKD2” value in series [3] (setting [12]) is on record as -3.28%. Also, in series [4] (setting [13]), the “%-inhibition at 1 µmol/L, ROCK1” value was 3.21%. Moreover, the “%-inhibition at 1 µmol/L, MAP4K2” value in series [5] (setting [14]) was 4%.
With `Cc1cc(Nc2ncc(Cl)c(Nc3ccccc3S(=O)(=O)C(C)C)n2)c(OC(C)C)cc1C1CCNCC1` [ceritinib], the “%-inhibition at 1 µmol/L, PKD3” value in series [1] (setting [6]) is given as 46%. In addition, the “%-inhibition at 1 µmol/L, CK1γ3” value in series [2] (setting [7]) is reported as 11%. Further, the “%-inhibition at 1 µmol/L, PKD2” value in series [3] (setting [8]) was 25%. Also, the “%-inhibition at 1 µmol/L, ROCK1” value in series [4] (setting [9]) is recorded as 31%. Moreover, the “%-inhibition at 1 µmol/L, MAP4K2” value in series [5] (setting [10]) was 7.37%.
For `C[C@@H](Oc1cc(-c2cnn(C3CCNCC3)c2)cnc1N)c1c(Cl)ccc(F)c1Cl` [crizotinib], the “%-inhibition at 1 µmol/L, CK1γ3” value in series [2] (setting [15]) is on record as 4%. Further, the “%-inhibition at 1 µmol/L, ROCK1” value in series [4] (setting [13]) was 3.39%.
With `C=CC(=O)Nc1cc(Nc2nccc(-c3cn(C)c4ccccc34)n2)c(OC)cc1N(C)CCN(C)C` [osimertinib], the “%-inhibition at 1 µmol/L, PKD3” value in series [1] (setting [6]) was 28%. The “%-inhibition at 1 µmol/L, CK1γ3” value in series [2] (setting [7]) is 13%. For the same compound, in series [3] (setting [8]), the “%-inhibition at 1 µmol/L, PKD2” value is on record as 16%. In series [4] (setting [9]), the “%-inhibition at 1 µmol/L, ROCK1” value is reported as -5%. Moreover, in series [5] (setting [10]), the “%-inhibition at 1 µmol/L, MAP4K2” value is -0.698%.
As to `CCCS(=O)(=O)Nc1ccc(F)c(C(=O)c2c[nH]c3ncc(-c4ccc(Cl)cc4)cc23)c1F` [vemurafenib], the “%-inhibition at 1 µmol/L, PKD3” value in series [1] (setting [11]) is reported as -4.7%. For the same compound, in series [2] (setting [15]), the “%-inhibition at 1 µmol/L, CK1γ3” value is recorded as 2.14%. Further, the “%-inhibition at 1 µmol/L, PKD2” value in series [3] (setting [12]) is on record as -13%. Besides, in series [4] (setting [13]), the “%-inhibition at 1 µmol/L, ROCK1” value is 1.28%. In addition, the “%-inhibition at 1 µmol/L, MAP4K2” value in series [5] (setting [14]) is reported as 43%.
Regarding `O=C(c1ccc(F)c(F)c1Nc1ccc(I)cc1F)N1CC(O)([C@@H]2CCCCN2)C1` [cobimetinib], the “%-inhibition at 1 µmol/L, PKD3” value in series [1] (setting [6]) is 4.41%. Also, the “%-inhibition at 1 µmol/L, CK1γ3” value in series [2] (setting [7]) is recorded as 6%. In addition, the “%-inhibition at 1 µmol/L, PKD2” value in series [3] (setting [8]) was -11%. The “%-inhibition at 1 µmol/L, ROCK1” value in series [4] (setting [9]) is listed as -2.61%. Also, the “%-inhibition at 1 µmol/L, MAP4K2” value in series [5] (setting [10]) is -5.57%.
For `CC(C)(C)c1nc(-c2cccc(NS(=O)(=O)c3c(F)cccc3F)c2F)c(-c2ccnc(N)n2)s1` [dabrafenib], the “%-inhibition at 1 µmol/L, PKD3” value in series [1] (setting [11]) is 93%. In addition, in series [3] (setting [12]), the “%-inhibition at 1 µmol/L, PKD2” value was 82%. In series [5] (setting [14]), the “%-inhibition at 1 µmol/L, MAP4K2” value was 8%.
On to `CO[C@@H]1[C@H](N(C)C(=O)c2ccccc2)C[C@H]2O[C@]1(C)n1c3ccccc3c3c4c(c5c6ccccc6n2c5c31)C(=O)NC4` [midostaurin], for which the “%-inhibition at 1 µmol/L, CK1γ3” value in series [2] (setting [7]) is recorded as -1.25%. The “%-inhibition at 1 µmol/L, ROCK1” value in series [4] (setting [9]) is 13%. Further, the “%-inhibition at 1 µmol/L, MAP4K2” value in series [5] (setting [10]) was 94%.
As for `CC#CC(=O)N1CCC[C@H]1c1nc(-c2ccc(C(=O)Nc3ccccn3)cc2)c2c(N)nccn12` [acalabrutinib], the “%-inhibition at 1 µmol/L, PKD3” value in series [1] (setting [6]) is -2%. In series [2] (setting [7]), the “%-inhibition at 1 µmol/L, CK1γ3” value is listed as -15%. The “%-inhibition at 1 µmol/L, PKD2” value in series [3] (setting [8]) is on record as -10%. The “%-inhibition at 1 µmol/L, ROCK1” value in series [4] (setting [9]) was -8%. The “%-inhibition at 1 µmol/L, MAP4K2” value in series [5] (setting [10]) was -11%.
For `CCc1cc2c(cc1N1CCC(N3CCOCC3)CC1)C(C)(C)c1[nH]c3cc(C#N)ccc3c1C2=O` [alectinib], in series [1] (setting [6]), the “%-inhibition at 1 µmol/L, PKD3” value is 2.17%. In addition, the “%-inhibition at 1 µmol/L, CK1γ3” value in series [2] (setting [7]) is 0.159%. Also, in series [3] (setting [8]), the “%-inhibition at 1 µmol/L, PKD2” value is listed as -1.05%. Further, the “%-inhibition at 1 µmol/L, ROCK1” value in series [4] (setting [9]) is -2%. In addition, the “%-inhibition at 1 µmol/L, MAP4K2” value in series [5] (setting [10]) is on record as 7.56%.
Take `COc1cc(N2CCC(N3CCN(C)CC3)CC2)ccc1Nc1ncc(Cl)c(Nc2ccccc2P(C)(C)=O)n1` [brigatinib]: the “%-inhibition at 1 µmol/L, PKD3” value in series [1] is listed as 85%. Moreover, in series [2], the “%-inhibition at 1 µmol/L, CK1γ3” value is reported as 0.829%. Also, the “%-inhibition at 1 µmol/L, PKD2” value in series [3] was 86%. Moreover, the “%-inhibition at 1 µmol/L, ROCK1” value in series [4] was 25%. In series [5], the “%-inhibition at 1 µmol/L, MAP4K2” value is recorded as 77%.
